# Patent US20250313563A1, “GLYCOGEN SYNTHASE KINASE 3 INHIBITORS AND USES THEREOF” (The Broad Institute, Inc., priority 2022, published 2025)
# Like-named read-outs stand apart in the source and are kept apart here.
# How the values were obtained:
# [1] = target: GSK3b (GST-full length GSK3b) (Homo sapiens (Human), UniProt P49841); assay: GSK3b TR-FRET kinase assay; assay type: biochemical
# In short: (§1)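 Full-length GST-tagged human enzyme (1 nM) is exposed to test compound for 30 min before substrates are added. Phosphorylation of a primed biotinylated glycogen synthase peptide proceeds 100 min at room temperature at low ATP (4 μM α; 2 μM β) or high ATP (1 mM). Product is quantified by TR-FRET.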
# [2] = target: GSK3α (GST-full length GSK3α) (Homo sapiens (Human), UniProt P49840); assay: GSK3α TR-FRET kinase assay; assay type: biochemical
# Sequence of GSK3α (GST-full length GSK3α) (P49840 whole entry): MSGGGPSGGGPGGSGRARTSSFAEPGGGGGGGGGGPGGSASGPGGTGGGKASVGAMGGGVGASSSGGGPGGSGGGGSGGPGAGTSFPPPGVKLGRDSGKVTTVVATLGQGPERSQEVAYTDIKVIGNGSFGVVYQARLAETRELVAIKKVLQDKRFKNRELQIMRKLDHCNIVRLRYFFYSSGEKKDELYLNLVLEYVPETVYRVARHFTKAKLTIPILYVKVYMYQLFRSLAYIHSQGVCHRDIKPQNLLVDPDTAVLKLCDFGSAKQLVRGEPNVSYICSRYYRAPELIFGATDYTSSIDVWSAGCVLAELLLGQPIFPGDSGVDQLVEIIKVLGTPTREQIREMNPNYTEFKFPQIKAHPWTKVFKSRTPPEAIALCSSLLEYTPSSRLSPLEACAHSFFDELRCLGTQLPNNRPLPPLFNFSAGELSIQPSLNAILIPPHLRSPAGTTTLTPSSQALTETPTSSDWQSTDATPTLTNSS
# In short: as §1
# [3] = 1 nM GSK3b, 2 μM ATP, 30 minute preincubation, Table 16, read-out: GSK3-B TR-FRET BIOCHEMICAL (TR-FRET), IC50
# [4] = 1 nM GSK3α, 4 μM ATP, 30 minute preincubation, Table 16, read-out: GSK3-A TR-FRET BIOCHEMICAL (TR-FRET), IC50
# [5] = 1 nM GSK3b, 2 μM ATP, 30 minute preincubation, Table 16, read-out: GSK3-B TR-FRET BIOCHEMICAL (TR-FRET)
# [6] = 1 nM GSK3α, 4 μM ATP, 30 minute preincubation, Table 16, read-out: GSK3-A TR-FRET BIOCHEMICAL (TR-FRET)
# [7] = 1 nM GSK3b, 2 μM ATP, 30 minute preincubation, read-out: GSK3-B TR-FRET BIOCHEMICAL (TR-FRET), IC50
# [8] = 1 nM GSK3α, 4 μM ATP, 30 minute preincubation, read-out: GSK3-A TR-FRET BIOCHEMICAL (TR-FRET), IC50
# [9] = read-out: GSK3-B (TR-FRET 1 mM ATP), GMean, IC50, 1 mM ATP, geometric mean
# [10] = read-out: GSK3-A (TR-FRET 1 mM ATP), GMean, IC50, 1 mM ATP, geometric mean
# Sequence of GSK3b (GST-full length GSK3b) (P49841 whole entry): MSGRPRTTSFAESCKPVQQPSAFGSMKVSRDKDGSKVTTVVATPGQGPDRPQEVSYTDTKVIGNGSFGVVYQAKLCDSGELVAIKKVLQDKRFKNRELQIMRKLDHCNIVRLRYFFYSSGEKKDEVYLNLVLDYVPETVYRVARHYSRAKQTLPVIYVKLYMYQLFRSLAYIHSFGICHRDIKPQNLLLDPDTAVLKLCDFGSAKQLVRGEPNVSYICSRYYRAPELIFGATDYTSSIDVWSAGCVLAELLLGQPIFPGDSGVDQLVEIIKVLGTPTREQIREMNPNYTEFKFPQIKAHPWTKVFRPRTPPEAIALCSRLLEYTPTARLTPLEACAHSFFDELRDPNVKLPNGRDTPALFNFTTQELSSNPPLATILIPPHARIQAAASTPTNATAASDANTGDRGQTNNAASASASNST
Compound,"IC50 [1, 3]","IC50 [2, 4]",further results
CC[C@]1(c2cccc([C@@H]3CCOC(C)(C)C3)c2)C2=C(CC(C)(C)CC2=O)Nc2n[nH]cc21 [Compound 912091],> 5000 nM,> 5000 nM,
CC1(C)CC(=O)C2=C(C1)Nc1n[nH]cc1C21CCN(S(C)(=O)=O)C1 (stereo not drawn) [Compound 912092],,,"IC50 [1, 5]: ≤ 100 nM; IC50 [2, 6]: ≤ 100 nM"
CC1(C)CC(=O)C2=C(C1)Nc1n[nH]cc1C21COCCOC1 [Compound 912094],> 5000 nM,1000 to 5000 nM,
CC[C@@]1(c2cccc(C(F)(F)F)c2)C2=C(C[C@H](C)NC2=O)Nc2n[nH]cc21 [Compound 912097],,,"IC50 [1, 7]: > 5000 nM; IC50 [2, 8]: 100 to 1000 nM"
CC[C@]1(c2cccc(C(F)(F)F)c2)C2=C(C[C@H](C)NC2=O)Nc2n[nH]cc21 [Compound 912099],,,"IC50 [1, 7]: > 5000 nM; IC50 [2, 8]: > 5000 nM"
CCC1(c2cccc(C(F)(F)F)c2)C2=C(Nc3n[nH]cc31)C(C)(C)NC2=O (stereo not drawn) [Compound 912104],,,"IC50 [1, 5]: 100 to 1000 nM; IC50 [2, 6]: ≤ 100 nM"
CC1(C)CC(=O)C2=C(C1)Nc1n[nH]cc1C21CCCCC1=O (stereo not drawn) [Compound 912105],> 5000 nM,> 5000 nM,
CC1(C)CC(=O)C2=C(C1)Nc1n[nH]cc1[C@]21CCO[C@@H](C(C)(C)C)C1 [Compound 912106],1000 to 5000 nM,100 to 1000 nM,
CC1(C)CC(=O)C2=C(C1)Nc1n[nH]cc1[C@@]21CCO[C@H](C(C)(C)C)C1 [Compound 912107],> 5000 nM,> 5000 nM,
CC1(C)CC(=O)C2=C(C1)Nc1n[nH]cc1[C@]21CCO[C@H](C(C)(C)C)C1 [Compound 912112],,,"IC50 [1, 5]: 100 to 1000 nM; IC50 [2, 6]: 100 to 1000 nM"
CC1(C)CC(=O)C2=C(C1)Nc1n[nH]cc1[C@@]21CCO[C@@H](C(C)(C)C)C1 [Compound 912113],1000 to 5000 nM,1000 to 5000 nM,
CC1(C)CC(=O)C2=C(C1)Nc1n[nH]cc1C21CC2(COC2)C1 [Compound 912168],,,"IC50 [1, 7]: > 5000 nM; IC50 [2, 8]: > 5000 nM"
CCC1(c2cccc(S(=O)(=O)C(C)C)c2)C2=C(CC(C)(C)CC2=O)Nc2n[nH]cc21 (stereo not drawn) [Compound 912169],≤ 100 nM,≤ 100 nM,
CC1(C)CC(=O)C2=C(C1)Nc1n[nH]cc1C21CS(=O)(=O)C1 [Compound 912170],> 5000 nM,1000 to 5000 nM,
CCC1(c2cccc(S(=O)(=O)C3CC3)c2)C2=C(CC(C)(C)CC2=O)Nc2n[nH]cc21 (stereo not drawn) [Compound 912171],,,"IC50 [1, 9]: 100 to 1000 nM; IC50 [2, 10]: ≤ 100 nM"
COC[C@H]1C[C@]2(C1)C1=C(CC(C)(C)CC1=O)Nc1n[nH]cc12 [Compound 912173],,,"IC50 [1, 5]: 100 to 1000 nM; IC50 [2, 6]: 100 to 1000 nM"
CC[C@@]1(c2cccc(C(F)(F)F)c2)C2=C(CCN(CC(F)(F)F)C2=O)Nc2n[nH]cc21 [Compound 912205],,,"IC50 [1, 7]: > 5000 nM; IC50 [2, 8]: > 5000 nM"
CCC1(c2cccc(C(F)(F)F)c2)C2=C(CCN(CC(F)(F)F)C2=O)Nc2n[nH]cc21 (stereo not drawn) [Compound 912206],,,"IC50 [1, 7]: 100 to 1000 nM; IC50 [2, 8]: ≤ 100 nM"
CC1(C)CC(=O)C2=C(C1)Nc1n[nH]cc1C21CCC2(CCC(=O)N2C(=O)OC(C)(C)C)CC1 (stereo not drawn) [Compound 912217],,,"IC50 [1, 7]: > 5000 nM; IC50 [2, 8]: 1000 to 5000 nM"
CCC1(c2cccc(C(F)(F)F)c2)C2=C(CCNC2=O)Nc2n[nH]cc21 (stereo not drawn) [Compound 912622],,,"IC50 [1, 7]: 1000 to 5000 nM; IC50 [2, 8]: 100 to 1000 nM"
CC[C@]1(c2cccc(C(F)(F)F)c2)C2=C(CCNC2=O)Nc2n[nH]cc21 [Compound 912668],,,"IC50 [1, 7]: > 5000 nM; IC50 [2, 8]: > 5000 nM"
CC1(C)CC(=O)C2=C(C1)Nc1n[nH]cc1C21COC2(CN(S(=O)(=O)c3ccccc3)C2)C1 (stereo not drawn) [Compound 913002],,,"IC50 [1, 7]: 1000 to 5000 nM; IC50 [2, 8]: 100 to 1000 nM"
CC[C@@]1(c2cccc(C(F)(F)F)c2)C2=C(CC(C)(C)NC2=O)Nc2n[nH]cc21 [Compound 913004],,,"IC50 [1, 7]: > 5000 nM; IC50 [2, 8]: > 5000 nM"
"CCC1(c2cccc(C(F)(F)F)c2)C2=C(CC(C)(C)NC2=O)Nc2n[nH]cc21 (stereo not drawn) [Compound 913006, 4-ethyl-7,7-dimethyl-4-(3-(trifluoromethyl)phenyl)-2,4,6,7,8,9-hexahydro-5H-pyrazolo[3,4-b][1,6]naphthyridin-5-one]",,,"IC50 [1, 7]: ≤ 100 nM; IC50 ([1]; GSK3-B (TR-FRET 1 mM ATP), GMean, IC50, 1 mM ATP, geometric mean): > 5000 nM; IC50 [2, 8]: ≤ 100 nM; IC50 ([2]; GSK3-A (TR-FRET 1 mM ATP), GMean, IC50, 1 mM ATP, geometric mean): 100 to 1000 nM"
CCC1(c2cccc(-c3ccncc3F)c2)C2=C(CC(C)(C)CC2=O)Nc2n[nH]c(C)c21 (stereo not drawn) [Compound 913017],100 to 1000 nM,100 to 1000 nM,

Compound,"IC50 [1, 3]","IC50 [2, 4]",further results
CCC1(c2cccc(-c3ccnc(C)c3)c2)C2=C(CC(C)(C)CC2=O)Nc2n[nH]c(C)c21 (stereo not drawn) [Compound 913018],≤ 100 nM,≤ 100 nM,"IC50 [1, 9]: 1000 to 5000 nM; IC50 [2, 10]: 100 to 1000 nM"
CCC1(c2cccc(-c3ccnc(C(F)(F)F)c3)c2)C2=C(CC(C)(C)CC2=O)Nc2n[nH]c(C)c21 (stereo not drawn) [Compound 913020],≤ 100 nM,≤ 100 nM,
CC[C@@]1(c2cccc(-c3ccnc(N(C)C)c3)c2)C2=C(CC(C)(C)CC2=O)Nc2n[nH]c(C)c21 [Compound 913021],≤ 100 nM,≤ 100 nM,
CCC1(c2cccc(-c3ccncc3C)c2)C2=C(CC(C)(C)CC2=O)Nc2n[nH]c(C)c21 (stereo not drawn) [Compound 913022],1000 to 5000 nM,100 to 1000 nM,
CCC1(c2cccc(-c3ccnn3C)c2)C2=C(CC(C)(C)CC2=O)Nc2n[nH]c(C)c21 (stereo not drawn) [Compound 913023],,,"IC50 [1, 9]: 100 to 1000 nM; IC50 [2, 10]: ≤ 100 nM"
CCC1(c2cccc(-c3cn[nH]c3)c2)C2=C(CC(C)(C)CC2=O)Nc2n[nH]c(C)c21 (stereo not drawn) [Compound 913025],≤ 100 nM,≤ 100 nM,"IC50 [1, 9]: 100 to 1000 nM; IC50 [2, 10]: ≤ 100 nM"
CCC1(c2cccc(-c3c(C)nn(C)c3C)c2)C2=C(CC(C)(C)CC2=O)Nc2n[nH]c(C)c21 (stereo not drawn) [Compound 913026],100 to 1000 nM,100 to 1000 nM,
CCC1(c2cccc(-c3cnn(C4CC4)c3)c2)C2=C(CC(C)(C)CC2=O)Nc2n[nH]cc21 (stereo not drawn) [Compound 913028],≤ 100 nM,≤ 100 nM,
CC[C@@]1(c2cccc(-c3cn(C)nc3C(C)C)c2)C2=C(CC(C)(C)CC2=O)Nc2n[nH]c(C)c21 [Compound 913029],≤ 100 nM,≤ 100 nM,
CCC1(c2cccc(-c3cnn(C)c3)c2)C2=C(CC(C)(C)CC2=O)Nc2n[nH]c(C)c21 (stereo not drawn) [Compound 913031],≤ 100 nM,≤ 100 nM,
CC[C@@]1(c2cccc(-c3cncn3C)c2)C2=C(CC(C)(C)CC2=O)Nc2n[nH]c(C)c21 [Compound 913032],≤ 100 nM,≤ 100 nM,"IC50 [1, 9]: ≤ 100 nM; IC50 [2, 10]: ≤ 100 nM"
CCC1(c2cccc(-c3cnn4c3CCCC4)c2)C2=C(CC(C)(C)CC2=O)Nc2n[nH]c(C)c21 (stereo not drawn) [Compound 913033],1000 to 5000 nM,100 to 1000 nM,
CCC1(c2cccc(-c3cn(C)nc3C)c2)C2=C(CC(C)(C)CC2=O)Nc2n[nH]c(C)c21 (stereo not drawn) [Compound 913034],> 5000 nM,1000 to 5000 nM,
CC[C@]1(c2cccc(-c3cn(C)nc3C)c2)C2=C(CC(C)(C)CC2=O)Nc2n[nH]c(C)c21 [Compound 913035],≤ 100 nM,≤ 100 nM,"IC50 [1, 9]: 100 to 1000 nM; IC50 [2, 10]: ≤ 100 nM"
CCC1(c2cccc(-c3cnn4c3CCCC4)c2)C2=C(CC(C)(C)CC2=O)Nc2n[nH]c(C)c21 (stereo not drawn) [Compound 913036],≤ 100 nM,≤ 100 nM,"IC50 [1, 9]: 100 to 1000 nM; IC50 [2, 10]: ≤ 100 nM"
CC[C@]1(c2cccc(-c3cncn3C)c2)C2=C(CC(C)(C)CC2=O)Nc2n[nH]c(C)c21 [Compound 913037],100 to 1000 nM,≤ 100 nM,
CCC1(c2cccc(-c3cnn(C)c3)c2)C2=C(CC(C)(C)CC2=O)Nc2n[nH]c(C)c21 (stereo not drawn) [Compound 913038],1000 to 5000 nM,100 to 1000 nM,
CCC1(c2cccc(-c3ccn(C)n3)c2)C2=C(CC(C)(C)CC2=O)Nc2n[nH]c(C)c21 (stereo not drawn) [Compound 913039],> 5000 nM,1000 to 5000 nM,
CC[C@]1(c2cccc(-c3cn(C)nc3C(C)C)c2)C2=C(CC(C)(C)CC2=O)Nc2n[nH]c(C)c21 [Compound 913040],1000 to 5000 nM,100 to 1000 nM,
CC[C@]1(c2cccc(-c3cnn(CCOC)c3)c2)C2=C(CC(C)(C)CC2=O)Nc2n[nH]c(C)c21 [Compound 913042],> 5000 nM,> 5000 nM,
CC[C@]1(c2cccc(-c3c(C)nn(C)c3C)c2)C2=C(CC(C)(C)CC2=O)Nc2n[nH]c(C)c21 [Compound 913043],≤ 100 nM,≤ 100 nM,"IC50 [1, 9]: 100 to 1000 nM; IC50 [2, 10]: ≤ 100 nM"
CCC1(c2cccc(-c3cn[nH]c3)c2)C2=C(CC(C)(C)CC2=O)Nc2n[nH]c(C)c21 (stereo not drawn) [Compound 913044],100 to 1000 nM,100 to 1000 nM,
CCC1(c2cccc(-c3cnn(C)c3C)c2)C2=C(CC(C)(C)CC2=O)Nc2n[nH]c(C)c21 (stereo not drawn) [Compound 913045],,,"IC50 [1, 9]: 100 to 1000 nM; IC50 [2, 10]: ≤ 100 nM"
CC[C@]1(c2cccc(-c3ccncc3C)c2)C2=C(CC(C)(C)CC2=O)Nc2n[nH]cc21 [Compound 913047],≤ 100 nM,≤ 100 nM,"IC50 [1, 9]: 100 to 1000 nM; IC50 [2, 10]: ≤ 100 nM"
